Drawing on patent US11180504B2 (ORCHID PHARMA LTD., priority 2016, dated 2021), this text covers MIC for 18 molecules.

For assay [1], the system named is carbapenem sensitive Escherichia coli. The assay is described as follows: MIC by broth micro-dilution (CLSI), carbapenem sensitive E. coli. The class given is cell-based.
The subject of assay [2] is methicillin-sensitive Staphylococcus aureus. The assay is described as follows: MIC by broth micro-dilution (CLSI), methicillin-sensitive S. aureus. The class given is cell-based. Conditions: MSSA S. aureus ATCC29213.
The subject of assay [3] is carbapenem sensitive Pseudomonas aeruginosa. Put plainly: MIC by broth micro-dilution (CLSI), carbapenem sensitive P. aeruginosa. In kind it is cell-based. In general terms: In broth dilution the organism is exposed to a series of concentrations in liquid medium.
Assay [4] relates to carbapenemase producing K. pneumoniae. The assay is described as follows: MIC by broth micro-dilution (CLSI), carbapenemase producing K. pneumoniae. In kind it is cell-based, Klebsiella pneumoniae.
[5] abbreviates: Escherichia coli, ATCC25922, ESBL −ve E. coli ATCC25922, read-out: MIC.
The mark [6] stands for this setting: Staphylococcus aureus, ATCC 29213 / MSSA, read-out: MIC.
[7] abbreviates: Pseudomonas aeruginosa, ATCC27853, Meropenem susceptible P. aeruginosa ATCC27853, read-out: MIC.
Setting [8] is: Klebsiella pneumoniae, ATCCBAA1705, KPC-2 K. pneumoniae ATCC BAA-1705, read-out: MIC.

In brackets after ≈: the same amount, converted by molar mass. Like-named read-outs stand apart in the source and are kept apart here.

For `C[C@@H](NS(=O)(=O)Cn1cnnn1)[C@H]1C(=O)N2C(C(=O)O)=C(S[C@@H]3CN[C@H](C(=O)N4CC[C@@H](N)C4)C3)[C@H](C)[C@H]12` [Example 380, (4R,5S,6S)-6-((R)-1-((1H-tetrazol-1-yl)methylsulfonamido)ethyl)-3-((3S,5S)-5-((R)-3-aminopyrrolidine-1-carbonyl)pyrrolidin-3-ylthio)-4-methyl-7-oxo-1-azabicyclo[3.2.0]hept-2-ene-2-carboxylic acid], the minimal inhibitory concentration (MIC) in assay [1] (setting [5]) is 1 µg/mL (≈ 1.76 µM); in assay [2] (setting [6]) it was 32 µg/mL (≈ 56.2 µM); in assay [3] (setting [7]) it was 32 µg/mL (≈ 56.2 µM); in assay [4] (setting [8]) it was 8 µg/mL (≈ 14 µM).
Regarding `C[C@@H](NC(=O)Cn1cnnn1)[C@H]1C(=O)N2C(C(=O)O)=C(S[C@@H]3CN[C@H](C(=O)N4C[C@H](N)C[C@H]4CO)C3)[C@H](C)[C@H]12` [Example 440, (4R,5S,6R)-6-((R)-1-(2-(1H-tetrazol-1-yl)acetamido)ethyl)-3-((3S,5S)-5-((2S,4R)-4-amino-2-(hydroxymethyl)pyrrolidine-1-carbonyl)pyrrolidin-3-ylthio)-4-methyl-7-oxo-1-azabicyclo[3.2.0]hept-2-ene-2-carboxylic acid], the minimal inhibitory concentration (MIC) in assay [1] (setting [5]) is 0.25 µg/mL (≈ 0.444 µM); in assay [2] (setting [6]), 2 µg/mL (≈ 3.55 µM); in assay [3] (setting [7]) it was 1 µg/mL (≈ 1.77 µM); in assay [4] (setting [8]) it was 1 µg/mL (≈ 1.77 µM).
Take `C[C@@H](NC(=O)Cn1cnnn1)[C@H]1C(=O)N2C(C(=O)O)=C(S[C@@H]3CN[C@H](C(=O)N4CCC(N)(CC#N)CC4)C3)[C@H](C)[C@H]12` [Example 371, (4R,5S,6R)-6-((R)-1-(2-(1H-tetrazol-1-yl)acetamido)ethyl)-3-((3S,5S)-5-(4-amino-4-(cyanomethyl)piperidine-1-carbonyl)pyrrolidin-3-ylthio)-4-methyl-7-oxo-1-azabicyclo[3.2.0]hept-2-ene-2-carboxylic acid]: the MIC was found to be 1 µg/mL (≈ 1.7 µM) in assay [1] (setting [5]), 16 µg/mL (≈ 27.3 µM) in assay [2] (setting [6]), 64 µg/mL (≈ 109 µM) in assay [3] (setting [7]) and 4 µg/mL (≈ 6.82 µM) in assay [4] (setting [8]).
The like results for `C[C@@H](NC(=O)Cn1cnnn1)[C@H]1C(=O)N2C(C(=O)O)=C(S[C@@H]3CN[C@H](C(=O)N4CCC(CCN)CC4)C3)[C@H](C)[C@H]12` [Example 480] were, in that order, 0.25 µg/mL (≈ 0.434 µM), 2 µg/mL (≈ 3.47 µM), 2 µg/mL (≈ 3.47 µM) and 1 µg/mL (≈ 1.74 µM).
The matching figures for `C[C@@H](NC(=O)Cn1cnnn1)[C@H]1C(=O)N2C(C(=O)O)=C(S[C@@H]3CN[C@H](C(=O)Nc4ccncc4)C3)[C@H](C)[C@H]12` [Example 402, (4R,5S,6R)-6-((R)-1-(2-(1H-tetrazol-1-yl)acetamido)ethyl)-4-methyl-7-oxo-3-((3S,5S)-5-(pyridin-4-ylcarbamoyl)pyrrolidin-3-ylthio)-1-azabicyclo[3.2.0]hept-2-ene-2-carboxylic acid]: 0.06 µg/mL (≈ 0.111 µM), 1 µg/mL (≈ 1.85 µM), 32 µg/mL (≈ 59.1 µM) and 1 µg/mL (≈ 1.85 µM).
For `C[C@@H](NC(=O)Cn1cnnn1)[C@H]1C(=O)N2C(C(=O)O)=C(S[C@@H]3CN[C@H](C(=O)N4CC5CCNCC5(CO)C4)C3)[C@H](C)[C@H]12` (single isomer, unassigned) [Example 542], the minimal inhibitory concentration (MIC) in assay [1] (ESBL −ve E. coli ATCC25922) is 0.25 µg/mL (≈ 0.414 µM); in assay [2], 4 µg/mL (≈ 6.63 µM); in assay [3] (Meropenem susceptible P. aeruginosa ATCC27853), 2 µg/mL (≈ 3.31 µM); in assay [4] (KPC-2 K. pneumoniae ATCC BAA-1705), 2 µg/mL (≈ 3.31 µM).
Turning to `C[C@@H](NC(=O)Cn1cnnn1)[C@H]1C(=O)N2C(C(=O)O)=C(S[C@@H]3CN[C@H](C(=O)N4CCC(N)(CO)C4)C3)[C@H](C)[C@H]12` (single isomer, unassigned) [Example 496], the MIC amounted to 0.25 µg/mL (≈ 0.444 µM) in assay [1] (setting [5]), 2 µg/mL (≈ 3.55 µM) in assay [2] (setting [6]), 2 µg/mL (≈ 3.55 µM) in assay [3] (setting [7]) and 2 µg/mL (≈ 3.55 µM) in assay [4] (setting [8]).
Regarding `C[C@@H](NC(=O)Cn1cnnn1)[C@H]1C(=O)N2C(C(=O)O)=C(S[C@@H]3CN[C@H](C(=O)N4CC5CCNC5C4)C3)[C@H](C)[C@H]12` (stereo partly drawn) [Example 505, (4R,5S,6R)-6-((R)-1-(2-(1H-tetrazol-1-yl)acetamido)ethyl)-4-methyl-3-((3S,5S)-5-(octahydropyrrolo[3,4-b]pyrrole-5-carbonyl)pyrrolidin-3-ylthio)-7-oxo-1-azabicyclo[3.2.0]hept-2-ene-2-carboxylic acid], the MIC in assay [1] (setting [5]) worked out at 0.25 µg/mL (≈ 0.447 µM); in assay [2] (setting [6]), 2 µg/mL (≈ 3.57 µM); in assay [3] (setting [7]), 1 µg/mL (≈ 1.79 µM); in assay [4] (setting [8]) it was 1 µg/mL (≈ 1.79 µM).
For `CNCC(=O)N[C@H](C)[C@H]1C(=O)N2C(C(=O)O)=C(S[C@@H]3CN[C@H](C(=O)NC4CCOCC4)C3)[C@H](C)[C@H]12` [Example 279], the MIC in assay [1] (setting [5]) was 4 µg/mL (≈ 7.85 µM); in assay [2] (setting [6]), over 128 µg/mL; in assay [3] (setting [7]), over 128 µg/mL; in assay [4] (setting [8]), 16 µg/mL (≈ 31.4 µM).
As to `C[C@H]([C@H]1C(=O)N2C(C(=O)O)=C(S[C@@H]3CN[C@H](C(=O)N4CC[C@@H](N)C4)C3)[C@H](C)[C@H]12)n1cnnn1` [Example 328, (4R,5S,6S)-6-((R) - 1-(1H-tetrazol-1-yl)ethyl)-3-((3S,5S)-5-((R)-3-aminopyrrolidine-1-carbonyl)pyrrolidin-3-ylthio)-4-methyl-7-oxo-1-azabicyclo[3.2.0]hept-2-ene-2-carboxylic acid], the minimal inhibitory concentration (MIC) in assay [1] (setting [5]) is 2 µg/mL (≈ 4.2 µM); in assay [2] (setting [6]), 4 µg/mL (≈ 8.39 µM); in assay [3] (setting [7]), 32 µg/mL (≈ 67.1 µM); in assay [4] (setting [8]), 4 µg/mL (≈ 8.39 µM).
For `C[C@@H](NC(=O)C(F)F)[C@H]1C(=O)N2C(C(=O)O)=C(S[C@@H]3CN[C@H](C(=O)N4CCC5CNCCC54)C3)[C@H](C)[C@H]12` (stereo partly drawn) [Example 486, (4R,5S,6R)-6-((R)-1-(2,2-difluoroacetamido)ethyl)-4-methyl-3-((3S,5S)-5-(octahydro-1H-pyrrolo[3,2-c]pyridine-1-carbonyl)pyrrolidin-3-ylthio)-7-oxo-1-azabicyclo[3.2.0]hept-2-ene-2-carboxylic acid], the MIC in assay [1] (setting [5]) was 0.5 µg/mL (≈ 0.923 µM); in assay [2] (setting [6]), 2 µg/mL (≈ 3.69 µM); in assay [3] (setting [7]), 64 µg/mL (≈ 118 µM); in assay [4] (setting [8]), 8 µg/mL (≈ 14.8 µM).
The like results for `C[C@@H](NC(=O)Cn1cnnn1)[C@H]1C(=O)N2C(C(=O)O)=C(S[C@@H]3CN[C@H](C(=O)N(CCO)CCO)C3)[C@H](C)[C@H]12` [Example 436, (4R,5S,6R)-6-((R)-1-(2-(1H-tetrazol-1-yl)acetamido)ethyl)-3-((3S,5S)-5-(bis(2-hydroxyethyl)carbarnoyl)pyrrolidin-3-ylthio)-4-methyl-7-oxo-1-azabicyclo[3.2.0]hept-2-ene-2-carboxylic acid] were, in that order, 0.25 µg/mL (≈ 0.452 µM), 8 µg/mL (≈ 14.5 µM), 8 µg/mL (≈ 14.5 µM) and 1 µg/mL (≈ 1.81 µM).
The like results for `CNCc1nnc(CC(=O)N[C@H](C)[C@H]2C(=O)N3C(C(=O)O)=C(S[C@@H]4CN[C@H](C(=O)N(C)C)C4)[C@H](C)[C@H]23)o1` [Example 295] were, in that order, 2 µg/mL (≈ 3.73 µM), 16 µg/mL (≈ 29.9 µM), 64 µg/mL (≈ 119 µM) and 16 µg/mL (≈ 29.9 µM).
The matching figures for `C[C@@H](NC(=O)Cn1cnnn1)[C@H]1C(=O)N2C(C(=O)O)=C(S[C@@H]3CN[C@H](C(=O)N4CCC5NCCCC5C4)C3)[C@H](C)[C@H]12` (single isomer, unassigned) [Example 482]: 0.25 µg/mL (≈ 0.425 µM), 4 µg/mL (≈ 6.81 µM), 4 µg/mL (≈ 6.81 µM) and 4 µg/mL (≈ 6.81 µM).
As to `C[C@@H](NC(=O)Cn1cnnn1)[C@H]1C(=O)N2C(C(=O)O)=C(S[C@@H]3CN[C@H](C(=O)N4C[C@H]5C[C@H](N)C[C@@]5(CN)C4)C3)[C@H](C)[C@H]12` [Example 538, (4R,5S,6R)-6-((R)-1-(2-(1H-tetrazol-1-yl)acetamido)ethyl)-3-((3S,5S)-5-((3aR,5S,6aS)-5-amino-3a-(aminomethyl)octahydro-cyclopenta[c]pyrrole-2-carbonyl)pyrrolidin-3-ylthio)-4-methyl-7-oxo-1-azabicyclo[3.2.0]hept-2-ene-2-carboxylic acid], the minimal inhibitory concentration (MIC) in assay [1] (setting [5]) came out at 0.25 µg/mL (≈ 0.415 µM); in assay [2] (setting [6]), 4 µg/mL (≈ 6.64 µM); in assay [3] (setting [7]) it was 1 µg/mL (≈ 1.66 µM); in assay [4] (setting [8]), 2 µg/mL (≈ 3.32 µM).
The like results for `COc1nnnn1CC(=O)N[C@H](C)[C@H]1C(=O)N2C(C(=O)O)=C(S[C@@H]3CN[C@H](C(=O)N(C)C)C3)[C@H](C)[C@H]12` [Example 385, (4R,5S,6R)-3-((3S,5S)-5-(dimethylcarbamoyl)pyrrolidin-3-ylthio)-6-((R)-1-(2-(5-methoxy-1H-tetrazol-1-yl)acetamido)ethyl)-4-methyl-7-oxo-1-azabicyclo[3.2.0]hept-2-ene-2-carboxylic acid] were, in that order, 0.25 µg/mL (≈ 0.478 µM), 4 µg/mL (≈ 7.65 µM), 64 µg/mL (≈ 122 µM) and 2 µg/mL (≈ 3.83 µM).
The matching figures for `C[C@@H](NC(=O)Cn1cnnn1)[C@H]1C(=O)N2C(C(=O)O)=C(S[C@@H]3CN[C@H](C(=O)N4CC5CC(NC(=N)N)CC5C4)C3)[C@H](C)[C@H]12` (stereo partly drawn) [Example 581, (4R,5S,6R)-6-((R)-1-(2-(1H-tetrazol-yl)acetamido)ethyl)-3-((3S,5S)-5-(5-guanidinooctahydroyclopenta[c]pyrrole-2-carbonyl)pyrrolidin-3-ylthio)-4-methyl-7-oxo-1-azabicyclo[3.2.0]hept-2-ene-2-carboxylic acid]: 0.5 µg/mL (≈ 0.812 µM), 8 µg/mL (≈ 13 µM), 64 µg/mL (≈ 104 µM) and 8 µg/mL (≈ 13 µM).
In the case of `C[C@@H](NC(=O)Cn1cnnn1)[C@H]1C(=O)N2C(C(=O)O)=C(S[C@@H]3CN[C@H](C(=O)N4CCC5CNCC5(CO)C4)C3)[C@H](C)[C@H]12` (single isomer, unassigned) [Example 535], the minimum inhibitory concentration (MIC) in assay [1] (setting [5]) stood at 0.25 µg/mL (≈ 0.414 µM); in assay [2] (Staphylococcus aureus, ATCC29213|MSSA, read-out: MIC), 2 µg/mL (≈ 3.31 µM); in assay [3] (setting [7]), 1 µg/mL (≈ 1.66 µM); in assay [4] (setting [8]) it was 2 µg/mL (≈ 3.31 µM).

For orientation: MIC means the lowest concentration found to suppress growth.
